Earlier results as cited in patent US20250241850A1, “BIOADHESIVE NASAL SPRAY COMPOSITION, PREPARATION METHOD AND USE” (Eurofarma Laboratórios S.A., priority 2022, published 2025).
Where a name gives a salt, the structure may show the parent alone.

Conditions: in vivo

half-life: 3 to 4 h
SMILES: CN1C2CCCC1CC(NC(=O)c1nn(C)c3ccccc13)C2 (stereo not shown) [Granisetron hydrochloride]
